# What was measured:
# [1] = system: PANC-1 (pancreatic cancer) cell line; test: Cell growth inhibition experiment (SRB), PANC-1; assay type: cell-based; settings: Homo sapiens, PANC-1, 96 h, 96 hours incubation
# Procedure, shortened: (§1)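 Cells in DMEM with 10% FBS were seeded at 2 to 3×10^3 cells/well, dosed the next day and incubated 96 hours at 37° C, 5% CO2. After TCA fixation and sulforhodamine B staining, OD530 was converted to viable cell number with a per-line standard curve. % survival is test over control; triplicate runs.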
# [2] = system: HUVEC; test: Cell growth inhibition experiment (SRB), HUVEC; assay type: cell-based, human; settings: Homo sapiens, HUVEC, 96 h, 96 hours incubation, read-out: IC50 (μM) […]
# Procedure, shortened: (§2)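 Cells seeded at 2 to 3×10^3 cells/well, cultured overnight, then exposed to compound for 96 h, in triplicate. SRB staining after TCA fixation, absorbance at 530 nm; OD530 converted to viable cell number via each line's standard curve, and % survival expressed relative to untreated control.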
# [3] = system: HEK293; test: Cell growth inhibition experiment (SRB), HEK293; assay type: cell-based, human; settings: Homo sapiens, HEK293, 96 h, 96 hours incubation, read-out: IC50 (μM) for cancer cell line HEK293
# Procedure, shortened: as §2
# [4] = system: UMRC2 (kidney cancer) cell line; test: Cell growth inhibition experiment (SRB), UMRC2; assay type: cell-based, human; settings: Homo sapiens, UMRC2, 96 h, 96 hours incubation
# Procedure, shortened: as §1
# [5] = system: SK-OV-3; test: Cell growth inhibition experiment (SRB), SK-OV-3; assay type: cell-based, human; settings: Homo sapiens, SK-OV-3, 96 h, 96 hours incubation, read-out: IC50 (μM) for cancer cell line SK-OV-3
# Procedure, shortened: as §2
# [6] = system: HN31 (head and neck cancer) cell line; test: Cell growth inhibition experiment (SRB), HN31; assay type: cell-based, human; settings: Homo sapiens, 96 h, 96 hours incubation
# Procedure, shortened: as §1
# [7] = system: HT29; test: Cell growth inhibition experiment (SRB), HT29; assay type: cell-based, human; settings: Homo sapiens, HT-29, 96 h, 96 hours incubation, read-out: IC50 (μM) for cancer cell line HT29
# Procedure, shortened: as §2
# [8] = system: MDA-MB-231 (breast cancer) cell line; test: Cell growth inhibition experiment (SRB), MDA-MB-231; assay type: cell-based, human; settings: Homo sapiens, MDA-MB-231, 96 h, 96 hours incubation
# Procedure, shortened: as §1
# [9] = system: A549; test: Cell growth inhibition experiment (SRB), A549; assay type: cell-based; settings: Homo sapiens, A549, 96 h, 96 hours incubation, read-out: IC50 (μM) for cancer cell line A549
# Procedure, shortened: as §2
SMILES,IC50 [1],IC50 [4],IC50 [5],IC50 [6],IC50 [7],IC50 [8],IC50 [9],IC50 [2],IC50 [3]
"CCOc1nc2oc(Cl)cc2nc1NC(=O)N1CCN(c2cc(OC)cc(OCCN(C)C)c2)CC1 [Example 54, N-(6-Chloro-3-ethoxyfuro[2,3-b]pyrazin-2-yl)-4-(3-(2-(dimethylamino)ethoxy)-5-methoxyphenyl)piperazine-1-carboxamide]",1.88 µM,1.32 µM,< 2.5 µM,1.78 µM,< 2.5 µM,1.68 µM,1.86 µM,1.75 µM,1.65 µM
"CCOc1nc2oc(Cl)cc2nc1NC(=O)N1CCN(c2cc(F)cc(F)c2)CC1 [Example 57, N-(6-Chloro-3-ethoxyfuro[2,3-b]pyrazin-2-yl)-4-(3,5-difluorophenyl)piperazine-1-carboxamide]",< 2.5 µM,< 2.5 µM,< 2.5 µM,< 2.5 µM,< 2.5 µM,< 2.5 µM,< 2.5 µM,< 2.5 µM,< 2.5 µM
"CCOc1nc2oc(Cl)cc2nc1NC(=O)N1CCN(c2cc(F)cc(C(F)(F)F)c2)CC1 [Example 58, N-(6-Chloro-3-ethoxyfuro[2,3-b]pyrazin-2-yl)-4-(3-fluoro-5-(trifluoromethyl)phenyl)piperazine-1-carboxamide]",< 2.5 µM,< 2.5 µM,< 2.5 µM,< 2.5 µM,< 2.5 µM,< 2.5 µM,< 2.5 µM,< 2.5 µM,< 2.5 µM
"CCOc1nc2oc(Cl)cc2nc1NC(=O)N1CCN(c2cc(C(F)(F)F)cc(C(F)(F)F)c2)CC1 [Example 59, 4-(3,5-Bis(trifluoromethyl)phenyl)-N-(6-chloro-3-ethoxyfuro[2,3-b]pyrazin-2-yl)piperazine-1-carboxamide]",1.98 µM,1.87 µM,< 2.5 µM,< 2.5 µM,< 2.5 µM,1.68 µM,< 2.5 µM,< 2.5 µM,< 2.5 µM

# The next lines start with results.
IC50 [1],IC50 [4],IC50 [5],IC50 [6],IC50 [7],IC50 [8],IC50 [9],SMILES,IC50 [2],IC50 [3]
1.58 µM,1.68 µM,< 2.5 µM,1.45 µM,< 2.5 µM,0.32 µM,< 2.5 µM,"CCOc1nc2oc(Cl)cc2nc1NC(=O)N1CCN(c2cc(OC)cc(OC)c2)CC1 [Example 51, N-(6-Chloro-3-ethoxyfuro[2,3-b]pyrazin-2-yl)-4-(3,5-dimethoxyphenyl)piperazine-1-carboxamide]",< 2.5 µM,< 2.5 µM
1.68 µM,0.68 µM,< 2.5 µM,1.36 µM,< 2.5 µM,1.18 µM,1.87 µM,"CCOc1nc2oc(Cl)cc2nc1NC(=O)N1CCN(c2cc(C)cc(OC)c2)CC1 [Example 52, N-(6-Chloro-3-ethoxyfuro[2,3-b]pyrazin-2-yl)-4-(3-methoxy-5-methylphenyl)piperazine-1-carboxamide]",1.62 µM,1.74 µM
0.56 µM,0.32 µM,1.91 µM,0.45 µM,1.67 µM,0.48 µM,1.68 µM,"CCOc1nc2oc(Cl)cc2nc1NC(=O)N1CCN(c2cc(F)cc(OC)c2)CC1 [Example 53, N-(6-Chloro-3-ethoxyfuro[2,3-b]pyrazin-2-yl)-4-(3-fluoro-5-methoxyphenyl)piperazine-1-carboxamide]",1.88 µM,1.98 µM
1.68 µM,0.68 µM,< 2.5 µM,1.75 µM,< 2.5 µM,0.32 µM,< 2.5 µM,"CCOc1nc2oc(Cl)cc2nc1NC(=O)N1CCN(c2cc(C)cc(C)c2)CC1 [Example 55, N-(6-Chloro-3-ethoxyfuro[2,3-b]pyrazin-2-yl)-4-(3,5-dimethylphenyl)piperazine-1-carboxamide]",< 2.5 µM,< 2.5 µM
1.68 µM,0.87 µM,< 2.5 µM,1.75 µM,< 2.5 µM,0.36 µM,< 2.5 µM,"CCOc1nc2oc(Cl)cc2nc1NC(=O)N1CCN(c2cc(C)cc(F)c2)CC1 [Example 56, N-(6-Chloro-3-ethoxyfuro[2,3-b]pyrazin-2-yl)-4-(3-fluoro-5-methylphenyl)piperazine-1-carboxamide]",< 2.5 µM,< 2.5 µM
